Reference: ChEMBL document CHEMBL1949663, “Effective and reversible DNA condensation induced by bifunctional molecules containing macrocyclic polyamines and naphthyl moieties” (Bioorg Med Chem, 2012)
The source made the active and inactive calls. The calls are words filed in the database; no cut-off is given here.

What was measured:
Nucleic Acid [1] = assay: Induction of Escherichia coli pUC18 DNA condensation at 300 uM after 5 mins by agarose gel electrophoresis; assay type: nucleic-acid assay
Nucleic Acid [2] = assay: Induction of Escherichia coli pUC18 DNA condensation at above 120 uM after 5 mins by agarose gel electrophoresis; assay type: nucleic-acid assay
Nucleic Acid [3] = assay: Induction of Escherichia coli pUC18 DNA condensation assessed as hydrodynamic diameter at 60 uM after 5 mins by dynamic light scattering analysis; assay type: nucleic-acid assay
Nucleic Acid [4] = assay: Induction of Escherichia coli pUC18 DNA condensation at 120 uM after 5 mins by agarose gel electrophoresis; assay type: nucleic-acid assay
Nucleic Acid [5] = assay: Induction of Escherichia coli pUC18 DNA condensation assessed as diameter of DNA nano particles at 120 uM after 5 mins by atomic force microscopy; assay type: nucleic-acid assay
[6] = Cytotoxicity against human T98G cells assessed as cell viability at 120 uM after 24 hrs by MTT assay; assay type: cell-based; settings: read-out: Activity
Nucleic Acid [7] = assay: Induction of Escherichia coli pUC18 DNA condensation assessed as diameter of DNA nano particles at 60 uM after 5 mins by atomic force microscopy; assay type: nucleic-acid assay
[8] = Cytotoxicity against human HepG2 cells assessed as cell viability at 120 uM after 24 hrs by MTT assay; assay type: cell-based; settings: read-out: Activity
Nucleic Acid [9] = assay: Intercalation at calf thymus DNA assessed as increase in viscosity by viscosity titration assay; assay type: nucleic-acid assay; settings: Bos taurus
Nucleic Acid [10] = assay: Binding affinity to calf thymus DNA assessed as fluorescence quenching after 2 mins by ethidium bromide displacement assay; assay type: nucleic-acid assay; settings: Bos taurus
Nucleic Acid [11] = assay: Induction of Escherichia coli pUC18 DNA condensation assessed as hydrodynamic diameter at 120 uM after 5 mins by dynamic light scattering analysis; assay type: nucleic-acid assay
Nucleic Acid [12] = assay: Reversible condensation of Escherichia coli pUC18 DNA assessed as release of condensed DNA at 120 uM incubated for 5 mins followed by addition of […] NaCl by agarose gel electrophoresis; assay type: nucleic-acid assay
Nucleic Acid [13] = assay: Induction of Escherichia coli pUC18 DNA condensation at 80 uM after 5 mins by agarose gel electrophoresis in presence of 10 to 400 mM NaCl; assay type: nucleic-acid assay
HepG2 = assay: Cytotoxicity against human HepG2 cells at 30 to 120 uM after 24 hrs by MTT assay; assay type: cell-based; settings: hepg2, 24 h
T98G = assay: Cytotoxicity against human T98G cells at 30 to 120 uM after 24 hrs by MTT assay; assay type: cell-based

Structure (SMILES) | Activity (Nucleic Acid [1]) | Activity (Nucleic Acid [3]) | Activity (Nucleic Acid [4]) | Activity (Nucleic Acid [5]) | Activity (Nucleic Acid [7]) | Activity (Nucleic Acid [9]) | Kb (Nucleic Acid [10]) | Activity (Nucleic Acid [11]) | Activity (Nucleic Acid [12]) | Activity (Nucleic Acid [13]) | other results
C1CNCCCN(CCCN2CCCNCCCNCCC2)CCCNC1 | inactive |  |  |  |  |  |  |  |  |  | 
c1ccc2c(CCCN3CCCNCCCNCCC3)cccc2c1 |  |  |  |  |  |  |  |  |  |  | Activity (Nucleic Acid [2]): Active
c1ccc2c(CC(Cn3cc(CN4CCCNCCCNCCC4)nn3)Cn3cc(CN4CCCNCCCNCCC4)nn3)cccc2c1 |  | 181 nm | Active | 56 nm | 49 nm | inactive | 0.98 ×10⁵ /M | 222 nm | Active | inactive | viability at 24 h, 120 µM [6]: 88%; viability at 24 h, 120 µM [8]: 64%
c1ccc2c(CN3CCCNCCCNCCC3)cccc2c1 | inactive |  |  |  |  |  |  |  |  |  | 

Further lines, with some results ahead:

Activity (Nucleic Acid [1]) | Activity (Nucleic Acid [3]) | Activity (Nucleic Acid [4]) | Activity (Nucleic Acid [5]) | Activity (Nucleic Acid [7]) | Activity (Nucleic Acid [9]) | Kb (Nucleic Acid [10]) | Activity (Nucleic Acid [11]) | Activity (Nucleic Acid [12]) | Activity (Nucleic Acid [13]) | Structure (SMILES) | other results
inactive |  |  |  |  |  |  |  |  |  | c1c(CN2CCCNCCCNCCC2)nnn1CCCn1cc(CN2CCCNCCCNCCC2)nn1 | 
 | 105 nm | Active | 55 nm | 47 nm | inactive | 1.2 ×10⁵ /M | 146 nm | Active | inactive | c1ccc2c(CC(CN3CCCNCCCNCCC3)CN3CCCNCCCNCCC3)cccc2c1 | Activity (HepG2): Toxic; Activity (T98G): Toxic
